# Laboratory results: ChEMBL document CHEMBL1201862, “PubChem BioAssay data set” (2004)
# The source made the active and inactive calls.
# How the values were obtained:
# Cytochrome P450 1A2 = biological target: T1, Cytochrome P450 1A2 (Homo sapiens, UniProt P05177);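 note: PubChem cytochrome P450 panel assay, CYP1A2 panel member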
# T1 sequence (P05177 whole entry): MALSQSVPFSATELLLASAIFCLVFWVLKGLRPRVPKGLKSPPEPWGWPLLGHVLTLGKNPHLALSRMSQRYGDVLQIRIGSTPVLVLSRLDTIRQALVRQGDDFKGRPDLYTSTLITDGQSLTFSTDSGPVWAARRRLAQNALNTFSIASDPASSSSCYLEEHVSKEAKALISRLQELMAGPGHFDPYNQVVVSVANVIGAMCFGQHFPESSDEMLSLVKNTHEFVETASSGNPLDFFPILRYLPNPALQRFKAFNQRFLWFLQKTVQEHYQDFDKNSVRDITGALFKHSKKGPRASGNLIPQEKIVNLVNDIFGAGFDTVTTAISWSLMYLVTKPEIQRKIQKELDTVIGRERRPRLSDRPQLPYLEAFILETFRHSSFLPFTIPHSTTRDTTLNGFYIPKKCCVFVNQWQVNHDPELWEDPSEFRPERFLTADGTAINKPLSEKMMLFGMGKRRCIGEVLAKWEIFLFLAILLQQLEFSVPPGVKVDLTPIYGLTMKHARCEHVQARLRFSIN
# Cytochrome P450 3A4 = Cytochrome P450 3A4 (Homo sapiens, UniProt P08684);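 note: CYP3A4 tested as one member of a cytochrome P450 panel screen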
# Chain of Cytochrome P450 3A4 (P08684 whole entry): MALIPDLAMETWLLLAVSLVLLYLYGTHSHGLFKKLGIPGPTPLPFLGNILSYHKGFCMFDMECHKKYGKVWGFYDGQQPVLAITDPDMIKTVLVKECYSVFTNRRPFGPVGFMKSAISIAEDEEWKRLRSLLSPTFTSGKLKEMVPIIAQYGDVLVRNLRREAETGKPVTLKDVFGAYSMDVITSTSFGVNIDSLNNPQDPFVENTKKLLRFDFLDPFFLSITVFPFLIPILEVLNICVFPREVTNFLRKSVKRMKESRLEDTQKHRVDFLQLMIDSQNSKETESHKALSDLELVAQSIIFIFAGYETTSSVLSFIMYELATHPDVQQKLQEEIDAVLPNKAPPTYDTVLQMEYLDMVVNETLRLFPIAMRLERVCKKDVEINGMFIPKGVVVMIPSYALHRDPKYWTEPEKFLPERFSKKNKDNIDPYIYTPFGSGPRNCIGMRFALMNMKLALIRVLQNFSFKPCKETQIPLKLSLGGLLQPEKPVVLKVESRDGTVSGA
# [1] = biological target: T2, Rac GTPase-activating protein 1 (Homo sapiens, UniProt Q9H0H5); assay: blockers of MgcRacGAP-driven Rac1 GTP hydrolysis – biochemical, ADP Hunter fluorescence, primary and confirmatory, confirmation (AID 624330); type: functional
# T2 sequence (Q9H0H5 whole entry): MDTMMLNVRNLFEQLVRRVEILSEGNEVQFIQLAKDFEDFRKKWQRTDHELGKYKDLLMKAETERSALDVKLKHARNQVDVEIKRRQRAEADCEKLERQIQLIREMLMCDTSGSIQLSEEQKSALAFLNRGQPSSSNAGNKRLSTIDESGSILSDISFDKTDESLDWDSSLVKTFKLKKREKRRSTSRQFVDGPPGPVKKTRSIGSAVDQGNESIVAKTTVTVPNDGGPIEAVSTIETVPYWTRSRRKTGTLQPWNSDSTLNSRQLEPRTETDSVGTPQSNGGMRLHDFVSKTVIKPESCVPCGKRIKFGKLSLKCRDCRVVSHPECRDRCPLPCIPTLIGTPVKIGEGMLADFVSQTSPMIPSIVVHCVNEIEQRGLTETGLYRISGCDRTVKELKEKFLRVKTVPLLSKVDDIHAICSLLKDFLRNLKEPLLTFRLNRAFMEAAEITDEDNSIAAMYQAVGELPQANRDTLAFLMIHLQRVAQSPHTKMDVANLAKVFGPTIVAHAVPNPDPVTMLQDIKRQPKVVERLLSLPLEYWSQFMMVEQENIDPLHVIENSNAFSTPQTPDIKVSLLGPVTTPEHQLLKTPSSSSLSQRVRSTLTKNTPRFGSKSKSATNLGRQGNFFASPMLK
# Cytochrome P450 2C19 = Cytochrome P450 2C19 (Homo sapiens, UniProt P33261); assay: Cytochrome panel assay with activity outcomes. Panel member name: p450-cyp2c19 Compounds with AC50 equal or less than 10 uM are considered active; type: functional; details: read-out: AC50
# Chain of Cytochrome P450 2C19 (P33261 whole entry): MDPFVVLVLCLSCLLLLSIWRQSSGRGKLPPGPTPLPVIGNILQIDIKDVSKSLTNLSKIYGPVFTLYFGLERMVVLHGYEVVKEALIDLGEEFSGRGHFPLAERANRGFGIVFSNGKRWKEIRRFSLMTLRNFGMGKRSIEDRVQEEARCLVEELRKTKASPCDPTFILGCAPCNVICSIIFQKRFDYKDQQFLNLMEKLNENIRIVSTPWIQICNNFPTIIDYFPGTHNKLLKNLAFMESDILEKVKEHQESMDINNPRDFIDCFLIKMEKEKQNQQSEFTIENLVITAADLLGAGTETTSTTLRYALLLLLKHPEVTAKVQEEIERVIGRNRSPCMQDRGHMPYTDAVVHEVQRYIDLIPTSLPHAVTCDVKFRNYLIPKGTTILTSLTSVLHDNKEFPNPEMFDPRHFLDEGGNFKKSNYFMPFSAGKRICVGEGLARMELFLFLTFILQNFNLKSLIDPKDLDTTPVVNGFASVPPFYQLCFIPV
# Cytochrome P450 2D6 = Cytochrome P450 2D6 (Homo sapiens, UniProt P10635);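 note: CYP2D6 member of a cytochrome P450 panel assay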
# Chain of Cytochrome P450 2D6 (P10635 whole entry): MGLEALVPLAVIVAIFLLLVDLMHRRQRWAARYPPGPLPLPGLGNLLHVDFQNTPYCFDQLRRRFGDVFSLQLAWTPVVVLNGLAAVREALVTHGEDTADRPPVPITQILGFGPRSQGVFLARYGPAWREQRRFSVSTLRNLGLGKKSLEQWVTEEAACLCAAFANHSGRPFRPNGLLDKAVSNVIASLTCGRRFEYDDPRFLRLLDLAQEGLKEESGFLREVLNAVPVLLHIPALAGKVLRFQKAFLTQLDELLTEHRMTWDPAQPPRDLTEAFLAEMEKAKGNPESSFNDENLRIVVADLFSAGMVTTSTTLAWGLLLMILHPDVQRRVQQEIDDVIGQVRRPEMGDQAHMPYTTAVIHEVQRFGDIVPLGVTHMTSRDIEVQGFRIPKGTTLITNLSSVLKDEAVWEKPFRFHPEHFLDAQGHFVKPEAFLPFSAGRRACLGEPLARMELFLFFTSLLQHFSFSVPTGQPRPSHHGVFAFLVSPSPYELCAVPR
# [2] = viability of uninfected HEp-2 cells – cell-based, HTS, cytotoxicity control for RSV inhibitor project, dose response (AID 2410); type: functional; details: human respiratory syncytial virus
# Cytochrome P450 2C9 = Cytochrome P450 2C9 (Homo sapiens, UniProt P11712)
# Chain of Cytochrome P450 2C9 (P11712 whole entry): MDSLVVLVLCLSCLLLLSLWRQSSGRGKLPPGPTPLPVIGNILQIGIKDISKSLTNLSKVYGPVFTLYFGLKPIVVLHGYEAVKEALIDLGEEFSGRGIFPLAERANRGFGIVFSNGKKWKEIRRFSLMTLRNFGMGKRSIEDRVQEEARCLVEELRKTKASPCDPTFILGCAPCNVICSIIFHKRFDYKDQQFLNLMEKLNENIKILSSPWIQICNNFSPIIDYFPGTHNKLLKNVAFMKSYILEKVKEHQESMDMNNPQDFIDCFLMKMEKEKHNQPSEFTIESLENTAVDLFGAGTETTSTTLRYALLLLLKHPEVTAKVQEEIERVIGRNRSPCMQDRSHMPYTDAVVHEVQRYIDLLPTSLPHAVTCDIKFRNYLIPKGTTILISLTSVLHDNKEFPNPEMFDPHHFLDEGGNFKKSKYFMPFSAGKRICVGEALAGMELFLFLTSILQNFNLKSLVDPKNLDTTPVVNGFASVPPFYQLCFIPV
# [3] = biological target: T3, Corticotropin-releasing factor receptor 2/Corticotropin-releasing factor-binding protein (Homo sapiens, UniProt P24387+Q13324); assay: activators of CRF receptor 2 with binding protein – uHTS hits, confirmation (AID 602473); type: functional; details: read-out: EC50_Mean
# T3 sequence (Q13324 whole entry): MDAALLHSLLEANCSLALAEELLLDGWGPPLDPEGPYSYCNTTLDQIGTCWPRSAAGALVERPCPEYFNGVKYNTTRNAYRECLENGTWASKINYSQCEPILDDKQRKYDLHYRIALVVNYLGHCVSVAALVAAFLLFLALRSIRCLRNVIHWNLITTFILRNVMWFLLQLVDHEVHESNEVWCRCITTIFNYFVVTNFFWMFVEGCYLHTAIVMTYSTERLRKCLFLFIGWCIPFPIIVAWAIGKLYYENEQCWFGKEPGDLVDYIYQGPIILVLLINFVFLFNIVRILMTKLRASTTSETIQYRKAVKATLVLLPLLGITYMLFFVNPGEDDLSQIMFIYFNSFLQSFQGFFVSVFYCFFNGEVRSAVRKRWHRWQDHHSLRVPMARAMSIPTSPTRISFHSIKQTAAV
# T3 sequence (P24387 whole entry): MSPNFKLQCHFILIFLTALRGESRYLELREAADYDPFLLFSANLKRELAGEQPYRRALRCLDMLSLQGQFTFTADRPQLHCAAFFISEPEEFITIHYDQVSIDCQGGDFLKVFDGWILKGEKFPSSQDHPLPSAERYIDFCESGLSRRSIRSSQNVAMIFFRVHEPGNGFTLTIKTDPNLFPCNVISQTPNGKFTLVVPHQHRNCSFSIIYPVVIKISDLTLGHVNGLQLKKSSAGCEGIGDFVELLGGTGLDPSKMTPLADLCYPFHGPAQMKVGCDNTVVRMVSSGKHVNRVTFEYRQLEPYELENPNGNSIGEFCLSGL
# [4] = Luminescence Cell-Based Dose Response HTS to Identify Activators of Luciferase Translation or Activity in H4 […] Cells. [Related pubchem assays: 1829 (Project Summary), 1814 (Primary HTS)]; type: functional
# [5] = Trypanosoma cruzi growth suppression in host cells – NIH3T3 host cells, beta-gal luminescence, confirmation (AID 2044); type: functional, cell-based;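 note: intracellular parasites grown in NIH/3T3 mouse fibroblasts as host cells; luminescent beta-galactosidase reporter signal from transgenic T. cruzi replicating inside host cells; inhibitors lower the luminescence signal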
# [6] = NIH3T3 cell viability loss – ATP luminescence, mouse fibroblasts, counter-screen, dose response (AID 2010); type: functional, cell-based;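 note: cells exposed to compound for about 90 hours before reading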
# H4 = assay: Luminescence Cell-Based Dose Response HTS to Identify Activators of 5'UTR Stem-Loop Driven Prion Protein mRNA Translation in H4 Neuroglioblastoma Cells. [Related pubchem assays: 1829 (Project Summary), 1814 (Primary HTS)]; type: functional; details: Homo sapiens
structure (smiles),measurement,setting,value
COc1ccccc1CN1CC[C@@]2(CCCN(C(=O)Oc3ccccc3)C2)C1,AC50,Cytochrome P450 1A2,10 µM (inconclusive)
same,AC50,Cytochrome P450 3A4,31.6 µM (inconclusive)
COc1ccc(CN2CCN(Cc3cccc(F)c3)CC2)cc1OC,IC50,[1],83 µM (active)
O=c1c(-c2cccc(Cl)c2)nc2cncnc2n1Cc1ccccc1,AC50,Cytochrome P450 2C19,0.0398 µM (inconclusive)
same,AC50,Cytochrome P450 2D6,39.8 µM (inconclusive)
CCOC(=O)c1c(C)[nH]c(N=Nc2ccccc2)c1C,CC50,[2],34.9 µM (active)
CCOc1c2ccc(C(=O)NCc3ccc(OC(F)(F)F)cc3)cc2nn1C,AC50,Cytochrome P450 2C19,20 µM (inconclusive)
same,AC50,Cytochrome P450 2D6,3.16 µM (inconclusive)
Nc1nc(CSc2nnnn2-c2ccc(Cl)cc2)nc(N2CCOCC2)n1,AC50,Cytochrome P450 2C19,1 µM (inconclusive)
same,AC50,Cytochrome P450 2D6,2.51 µM (inconclusive)
same,AC50,Cytochrome P450 1A2,2.51 µM (inconclusive)
same,AC50,Cytochrome P450 2C9,5.62 µM (inconclusive)
COc1ccc(C(=O)N2CCC3(CCCN(C(=O)Nc4cccc(C#N)c4)C3)CC2)cc1,AC50,Cytochrome P450 2C19,39.8 µM (inconclusive)
same,AC50,Cytochrome P450 1A2,15.8 µM (inconclusive)
same,AC50,Cytochrome P450 2C9,39.8 µM (inconclusive)
CNC(=O)C1CCN(S(=O)(=O)c2c(C)noc2/C=C/c2ccc(OC)cc2)CC1,EC50,[3],> 53 µM (inactive)
COc1ccc(NCCC#N)cc1,IC50,[1],79.1 µM (active)
COc1ccccc1OCCCCCCN1CCOCC1,IC50,[1],184 µM (active)
CSc1ccc(CNC(=O)Cc2ccc(NC(=O)C3=C(C)OCCS3)cc2)cc1,EC50,[4],1.92 µM (active)
COc1cc(/C=C/C(=O)OCC(=O)Nc2ccc(S(=O)(=O)N3CCCC3)cc2)ccc1O,IC50,[1],60 µM (active)
Cc1cccc(CNc2ccnc(-c3ccccc3C(F)(F)F)n2)c1,AC50,Cytochrome P450 2D6,25.1 µM (inconclusive)
same,AC50,Cytochrome P450 3A4,3.16 µM (inconclusive)
same,AC50,Cytochrome P450 2C9,1.26 µM (inconclusive)
CC(=O)[C@@H]1CC[C@H]2[C@H]3CC[C@H]4C[C@@H](O)CC[C@]4(C)[C@@H]3CC[C@]12C,AC50,Cytochrome P450 2C19,20 µM (inconclusive)
same,AC50,Cytochrome P450 1A2,10 µM (inconclusive)
same,AC50,Cytochrome P450 3A4,15.8 µM (inconclusive)
CN1CCc2nc3ccc(F)cc3c(C(N)=O)c2C1,AC50,Cytochrome P450 2C19,39.8 µM (inconclusive)
same,AC50,Cytochrome P450 1A2,25.1 µM (inconclusive)
same,AC50,Cytochrome P450 2C9,17.8 µM (inconclusive)
O=C(Cn1c(C(=O)NCC2CCCO2)cc2sccc21)c1ccccc1 (centres undefined),IC50,[1],102 µM (active)
O=C(c1cnccn1)N1CCC2(CCCN(c3ccc(-c4ccccc4)cc3)C2)CC1,AC50,Cytochrome P450 1A2,25.1 µM (inconclusive)
same,AC50,Cytochrome P450 2C9,12.6 µM (inconclusive)
Cc1ccccc1[C@]1(C)ON(c2ccccc2C(F)(F)F)C1=O,CC50,[2],21.8 µM (active)
COc1ccc(C(=O)Nc2ccccc2)cc1NC(=O)c1ccc([N+](=O)[O-])cc1,CC50,[2],> 50 µM (active)
same,EC50,[5],1.33 µM (active)
same,EC50,[6],> 60 µM (not active)
O=S(=O)(c1ccccc1)N1CCC[C@@]2(CCN(Cc3ccccc3)C2)C1,AC50,Cytochrome P450 1A2,20 µM (inconclusive)
same,AC50,Cytochrome P450 3A4,1.26 µM (inconclusive)
O=C(NCCc1c[nH]c2ccccc12)c1cnc2sccn2c1=O,EC50,[4],53 µM (active)
same,EC50,H4,54.8 µM (inconclusive)
CC(C)CN1CCCC2(CCN(C(=O)c3cc(C(F)(F)F)cc(C(F)(F)F)c3)CC2)C1,AC50,Cytochrome P450 1A2,12.6 µM (inconclusive)
same,AC50,Cytochrome P450 3A4,15.8 µM (inconclusive)
same,AC50,Cytochrome P450 2C9,39.8 µM (inconclusive)
COc1cccc(C(=O)N2CCN(C3CCN(Cc4ccccc4)CC3)CC2)c1OC,IC50,[1],120 µM (active)
CN1CCN(c2ncc3nc(-c4ccccc4)c(=O)n(Cc4cccs4)c3n2)CC1,AC50,Cytochrome P450 1A2,15.8 µM (inconclusive)
CCC(C)OC(=O)C1=C(C)NC(=O)CC1c1ccccc1OC (centres undefined),AC50,Cytochrome P450 1A2,15.8 µM (inconclusive)
same,AC50,Cytochrome P450 3A4,39.8 µM (inconclusive)
COc1ccccc1NC(=O)C1CCN(S(=O)(=O)c2ccc3c(c2)NC(=O)C(C)S3)CC1 (centres undefined),CC50,[2],20.2 µM (active)
Cc1nc2cnc(N3CCN(C)CC3)nc2n(Cc2cccs2)c1=O,AC50,Cytochrome P450 2D6,15.8 µM (inconclusive)
same,AC50,Cytochrome P450 3A4,25.1 µM (inconclusive)
CCc1ccc(OCCOCCN2CCN(C)CC2)cc1,IC50,[1],89.4 µM (active)
NC(=O)OC[C@H](O)COc1ccc(Cl)cc1,AC50,Cytochrome P450 1A2,10 µM (inconclusive)
CC(=O)O[C@H]1CC[C@@]2(C)C(=CC[C@@H]3[C@H]4CC[C@@H]([C@H](C)C(=O)O)[C@]4(C)CC[C@H]32)C1,AC50,Cytochrome P450 1A2,3.16 µM (inconclusive)
CCOc1ccc(-c2cc(C(=O)N/N=C(\C)c3cccnc3)c3ccccc3n2)cc1,EC50,H4,84.3 µM (inconclusive)
CC(=C/c1ccccc1)/C=N/n1c(S)nnc1-c1ccco1,IC50,[1],86.4 µM (active)
COc1ccc(/C=N/c2ccc3[nH]ncc3c2)c(O)c1,IC50,[1],35.3 µM (active)
O=C(CN1CCN(S(=O)(=O)c2ccc(Br)cc2)CC1)N/N=C/c1ccc(Br)s1,CC50,[2],22.2 µM (active)
same,EC50,[5],2.55 µM (active)
same,EC50,[6],> 60 µM (not active)
CCc1nnc(N/N=C/c2c(C)[nH]c3ccccc23)n1N,IC50,[1],51.7 µM (active)
COc1cc(/C=N/NC(=O)c2ccc(-n3cccc3)cc2)ccc1O,IC50,[1],23.9 µM (active)
O=C(COc1cccc2ccccc12)N/N=C/c1ccc(Sc2nc3ccccc3s2)o1,CC50,[2],10.8 µM (active)
O=C(N/N=C/c1ccc(Br)s1)c1c[nH]c2ccccc12,CC50,[2],37.3 µM (active)
COC(=O)c1nn(-c2ccccc2)c(Cl)c1/C=N/OCc1ccc(Cl)cc1Cl,CC50,[2],23.8 µM (active)
COc1cc(/C=N/NC(=O)CCc2nnc(O)nc2O)ccc1O,IC50,[1],32.5 µM (active)
O=C1C(/C=N/c2ccc(F)cc2)=C(O)c2ccccc21,EC50,[4],0.173 µM (active)
same,EC50,H4,0.38 µM (active)
CC(C)C(=O)/N=c1\sc2cccc(F)c2n1C,CC50,[2],> 50 µM (active)
NC[C@@H]1O[C@H](c2ccccc2)Cc2c1ccc(O)c2O,AC50,Cytochrome P450 2D6,31.6 µM (inconclusive)
same,AC50,Cytochrome P450 1A2,15.8 µM (inconclusive)
same,AC50,Cytochrome P450 3A4,31.6 µM (inconclusive)
Cc1c(N(C)C)c(=O)n(-c2ccccc2)n1C [AMINOPYRINE],AC50,Cytochrome P450 1A2,10 µM (inconclusive)
Cc1nc(N)sc1CCN [AMTHAMINE],AC50,Cytochrome P450 1A2,31.6 µM (inconclusive)
CCCCN(CCCC)CCCOC(=O)c1ccc(N)cc1 [BUTACAINE],AC50,Cytochrome P450 1A2,10 µM (inconclusive)
